The results in this text go back to patent US20160038448A1, “THE INHIBITION OF THE TOXIC EFFECTS OF ISLET AMYLOID FORMATION BY FLURBIPROFEN AND FLURBIPROFEN DERIVATIVES” (The Research Foundation for the State University of New York, priority 2013, published 2016).

Data set [1] deals with T1, human IAPP (Homo sapiens, UniProt P10997).
T1 construct: Mature, fully processed, Amylin is 37 residues in length, contains a disulfide bond between residues 2 and 7; made in house; host or cells: chemical solid-phase peptide synthesis (Fmoc), no expression host
T1 sequence (P10997 34-70 limits assumed): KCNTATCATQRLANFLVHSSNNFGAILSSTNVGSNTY
Nature of the data set: Fluorescence detected thioflavin-T assay of the time course of amyloid formation. Format: biochemical. To be noted: for effect on islet amyloid formation (thioflavin-T time course): compound 20 parts, human IAPP 1 part, example in present tense; for inhibition of amyloid formation by human IAPP (amylin): 20 to 1 ratio of NSAID to human IAPP, pH 7.4, 25° C. As for the experimental part:
Peptides were first dissolved in 100% hexafluoroisopropanol (HFIP) at a concentration 1.6 mM and then filtered to remove any preformed amyloid aggregates. For thioflavin-T fluorescence assays, aliquots were lyophilized and redissolved in pH 7.4, 20 mM Tris-HCl buffer at the desired concentration. Aspirin and Ketoprofen were prepared in 100% dimethyl sulfoxide (DMSO).
Solutions were prepared by adding pH 7.4, 20 mM Tris buffer and thioflavin-T to lyophilized dry peptides for a final peptide concentration of […]. For the studies of Aspirin and Ketoprofen, 0.25% DMSO was present in the solution. Measurements were made at 25° C. using a Beckman Coulter DTX880 plate reader without stirring. An excitation filter of 430 nm and an emission filter of 485 nm were used. To test disaggregate activity of Aspirin, peptide was first incubated in low-binding 96-wells plate and monitored by plate reader to ensure the formation of amyloid fibrils.
A mixture of flurbiprofen (1-20 parts) and human IAPP (1 part) was monitored by fluorescence detected thioflavin-T assays. The assays monitored the time course of amyloid formation (amount vs time) in the presence and absence of flurbiprofen.
A mixture of OH-flurbiprofen and human IAPP were monitored by fluorescence detected thioflavin-T assays. Three different concentrations (1:1 ratio, 1:10 ratio and 1:20 ratio of IAPP to OH-flurbiprofen) were tested against human IAPP without any added OH-flurbiprofen. The assays monitored the time course of amyloid formation (amount vs time) in the presence and absence of a flurbiprofen derivative.
Three different mixtures of NSAIDs (20 parts) and human IAPP (1 parts) were compared to each other and human IAPP alone by fluorescence detected thioflavin-T assays. The assays monitored the time course of amyloid formation (amount vs time) in the presence and absence of aspirin, naproxen and flurbiprofen.

Data set [2] deals with rat INS-1 beta-cells. Nature of the data set: AlamarBlue cell viability of beta-cells given aliquots of the IAPP amyloid time course. Format: cell-based. As to the method:
FIG. 5. […] (A) A thioflavin-T monitored time course of amyloid formation in the presence and absence of flurbiprofen. […] 20 mM Tris-HCl buffer with 0.25% DMSO was used as the control.
The presence of toxic intermediates is reduced when amyloid formation is accelerated by use of flurbiprofen or a flurbiprofen derivative. A thioflavin-T monitored time course of amyloid formation by human IAPP was conducted in the presence and absence of flurbiprofen. Aliquots were removed at various time points and applied to rat INS-1 beta-cells; at thirty minutes, at 12 hours, at 48 hours. Cell viability as judged by AlamarBlue assays. 20 mM Tris-HCl buffer with 0.25% DMSO was used as the control.

Data set [3] deals with T2, human IAPP (amylin) (Homo sapiens, UniProt P10997).
T2 construct: Mature, fully processed, Amylin is 37 residues in length, contains a disulfide bond between residues 2 and 7; made in house; host or cells: chemical solid-phase peptide synthesis (Fmoc), no expression host
T2 sequence (P10997 34-70 limits assumed): T1 sequence (P10997 34-70 limits assumed)
In words: Transmission electron microscopy of amyloid fibrils. Format: biochemical. As for the experimental part:
TEM was performed at the Life Science Microscopy Center at Stony Brook University. Aliquots were removed from the same solutions that were used for the fluorescence measurements. 5 μL of peptide solution was placed on carbon-coated Formvar 300 mesh copper grid for one minute and then negatively stained with saturated uranyl acetate for another one minute.

The target in data set [4] is T3, pre-formed human amylin amyloid fibrils (Homo sapiens, UniProt P10997).
T3 construct: Mature, fully processed, Amylin is 37 residues in length, contains a disulfide bond between residues 2 and 7; made in house; host or cells: chemical solid-phase peptide synthesis (Fmoc), no expression host
T3 sequence (P10997 34-70 limits assumed): T1 sequence (P10997 34-70 limits assumed)
In words: Disaggregation of pre-formed amylin amyloid fibrils (thioflavin-T and TEM). Format: biochemical. The note with it: 20-fold excess added after amyloid formation was complete; up to 48 hours.
Protocol: Solutions were prepared by adding pH 7.4, 20 mM Tris buffer and thioflavin-T to lyophilized dry peptides for a final peptide concentration of 16 M. For the studies of Aspirin and Ketoprofen, 0.25% DMSO was present in the solution. Measurements were made at 25° C. using a Beckman Coulter DTX880 plate reader without stirring. An excitation filter of 430 nm and an emission filter of 485 nm were used.

The test system of data set [5] is 3XL-IAPP mutant (F15L, F23L, Y37L human IAPP). Nature of the data set: Thioflavin-T assay of mutant human IAPP amyloid formation (3XL). Format: biochemical. The note with it: WT human IAPP and mutant IAPP compared. From the text: A mixture of flurbiprofen (20 parts) and human IAPP (1 part) was monitored by fluorescence detected thioflavin-T assays. The assays monitored the time course of amyloid formation (amount vs time) in the presence and absence of flurbiprofen. The effect of flurbiprofen in wild-type (WT) human IAPP, and in two mutants of human IAPP was monitored. In one mutant, all of the aromatic amino acids in human IAPP were replaced by […] human IAPP was examined. A second mutant in which […] human IAPP) was also tested.

Data set [6] is described as follows: Parallel biophysical and cell viability experiments on h-IAPP variants. Format: cell-based. As to the method: Parallel biophysical and cell viability experiments were conducted using a range of conditions that alter the length of the lag phase. h-IAPP amyloid kinetics are concentration-dependent. Decreasing the peptide concentration leads to an increase in the length of the lag phase, while an increase in human-IAPP concentration leads to a shortening of the lag phase. The length of the lag phase can also be controlled by altering the temperature. Lower temperatures lead to a longer lag phase; the lag phase is 2-fold longer at 15° C. […] A set of rationally designed Ser-20 mutations were used. Ser-20 is located at a critical position in the h-IAPP sequence and modulates its aggregation kinetics. […] Toxicity and kinetics experiments were performed on the Ser-20 mutants. […] An human-IAPP triple mutant, 3×L-IAPP, in which Leu replaced the three aromatic residues (Phe-15, Phe=23 and Tyr-37) was tested. This mutant forms amyloid 9-fold more slowly than wild type human IAPP (Marek at al. 2007). […] The duration of toxicity for all the mutants and for all the conditions with human IAPP wild type correlated with the length of the respective lag phases.

Setting [7] is: compound 20 parts, human IAPP 1 part, example in present tense.
[8] abbreviates: 20 to 1 ratio of compound to human IAPP.
Setting [9] is: IAPP:compound ratios 1:1 to 1:20, pH 7.4, 20 mM Tris, 25° C.

Entries after “also recorded” stand apart in the source; their conditions may differ.

With `O=C(O)Cc1ccc(-c2ccccc2)c(F)c1` [2-(2-Fluorobiphenyl-4-yl)acetic acid, 2-(2-fluorobiphenyl-4-yl)acetic acid], the “effect on islet amyloid formation (thioflavin-T time course)” value (from here on “effect on islet amyloid formation”) in data set [1] is on record as “accelerates islet amyloid formation”. The “presence and toxic effects of intermediates of amyloid formation” value (“presence and toxic effects” below) in data set [2] (setting [7]) was “reduces the presence and toxic effects of intermediates of amyloid formation”.
In the case of `O=C(O)Cc1ccc(-c2ccccc2)cc1` [2-(Biphenyl-4-yl)acetic acid, 2-(biphenyl-4-yl)acetic acid], the “effect on islet amyloid formation” value in data set [1] was “accelerates islet amyloid formation”. The “presence and toxic effects” value in data set [2] (setting [7]) was “reduces the presence and toxic effects of intermediates of amyloid formation”.
In the case of `C[C@H](C(=O)O)c1ccc(-c2ccccc2)cc1` [(S)-2-(Biphenyl-4-yl)propanoic acid, (S)-2-(biphenyl-4-yl)propanoic acid], the “effect on islet amyloid formation” value in data set [1] is given as “accelerates islet amyloid formation”. Moreover, in data set [2] (setting [7]), the “presence and toxic effects” value was “reduces the presence and toxic effects of intermediates of amyloid formation”.
In the case of `CC(C(=O)O)c1cccc(C(=O)c2ccccc2)c1` (stereo not shown) [Ketoprofen], the “inhibition of amylin amyloid formation judged by TEM” value in data set [3] (equimolar to 20-fold excess of Ketoprofen, 42 hours, amylin 16 μM) is “not an amylin amyloid inhibitor; also recorded: does not inhibit amyloid formation by amylin”. In addition, the “inhibition of amyloid formation by human IAPP (amylin)” value in data set [1] was “do not inhibit amylin amyloid formation”. For the same molecule, in data set [4], the “disaggregation of pre-formed amylin amyloid fibrils” value is “unable to disassemble pre-formed amylin amyloid”.
`COc1ccc2cc([C@H](C)C(=O)O)ccc2c1` [Naproxen]: the “amyloid fibrils by TEM in presence of NSAID” value in data set [3] (20-fold excess of NSAID over human IAPP, end of kinetic experiment) was “no changes in amyloid formation”. The “inhibition of amyloid formation by human IAPP (amylin)” value in data set [1] is “no inhibition of amyloid”.
As to `CC(C(=O)O)c1ccc(-c2ccc(O)cc2)c(F)c1` (stereo not shown) [OH-flurbiprofen, 2-(2-fluoro-4′-hydroxybiphenyl-4-yl) propanoic acid], the “effect on human IAPP amyloid formation (thioflavin-T time course)” value (“effect on human IAPP amyloid formation” for short) in data set [1] (setting [8]) is on record as “highest rate of acceleration of amyloid formation”; in data set [1] (setting [9]) it was “accelerated islet amyloid formation; also recorded: accelerates amyloid formation by human islet amyloid polypeptide”. The “presence and toxic effects” value in data set [2] (human IAPP with compound) is “reduced the presence and toxic effects of intermediates of amyloid formation in a dose dependent fashion”.
Take `C[C@@H](C(=O)O)c1ccc(-c2ccccc2)c(F)c1` [R-flurbiprofen]: in data set [5], the “acceleration of amyloid formation and reduction of toxic effects of intermediates, WT human IAPP versus mutant IAPP” value is reported as “about equally”. Moreover, the “effect on human IAPP amyloid formation” value is listed as “accelerated islet amyloid formation” in data set [1] (setting [8]) and “equally effective” in data set [1] (20 to 1 ratio of compound to human IAPP, listed as R flurbiprofen). Further, the “presence and toxic effects” value in data set [2] (human IAPP with compound) was “reduced the presence and toxic effects of intermediates of amyloid formation”.
As for `CC[C@H](C)[C@H](NC(=O)[C@H](C)NC(=O)CNC(=O)[C@H](Cc1ccccc1)NC(=O)[C@H](CC(N)=O)NC(=O)[C@H](CC(N)=O)NC(=O)CNC(=O)[C@H](CO)NC(=O)[C@H](Cc1c[nH]cn1)NC(=O)[C@@H](NC(=O)[C@H](CC(C)C)NC(=O)[C@H](Cc1ccccc1)NC(=O)[C@H](CC(N)=O)NC(=O)[C@H](C)NC(=O)[C@H](CC(C)C)NC(=O)[C@H](CCCNC(=N)N)NC(=O)[C@H](CCC(N)=O)NC(=O)[C@@H](NC(=O)[C@H](C)NC(=O)[C@@H]1CSSC[C@H](NC(=O)[C@@H](N)CCCCN)C(=O)N[C@@H](CC(N)=O)C(=O)N[C@@H]([C@@H](C)O)C(=O)N[C@@H](C)C(=O)N[C@@H]([C@@H](C)O)C(=O)N1)[C@@H](C)O)C(C)C)C(=O)N[C@@H](CC(C)C)C(=O)N[C@@H](CO)C(=O)N[C@@H](CO)C(=O)N[C@H](C(=O)N[C@@H](CC(N)=O)C(=O)N[C@H](C(=O)NCC(=O)N[C@@H](CO)C(=O)N[C@@H](CC(N)=O)C(=O)N[C@H](C(=O)N[C@@H](Cc1ccc(O)cc1)C(N)=O)[C@@H](C)O)C(C)C)[C@@H](C)O` [S20G-IAPP], the “onset and duration of toxicity relative to wild type human IAPP” value in data set [6] was “more rapid onset and shorter duration of toxicity”.
Still for that read-out and setting: as for `CC[C@H](C)[C@H](NC(=O)[C@H](C)NC(=O)CNC(=O)[C@H](Cc1ccccc1)NC(=O)[C@H](CC(N)=O)NC(=O)[C@H](CC(N)=O)NC(=O)[C@H](CCCCN)NC(=O)[C@H](CO)NC(=O)[C@H](Cc1c[nH]cn1)NC(=O)[C@@H](NC(=O)[C@H](CC(C)C)NC(=O)[C@H](Cc1ccccc1)NC(=O)[C@H](CC(N)=O)NC(=O)[C@H](C)NC(=O)[C@H](CC(C)C)NC(=O)[C@H](CCCNC(=N)N)NC(=O)[C@H](CCC(N)=O)NC(=O)[C@@H](NC(=O)[C@H](C)NC(=O)[C@@H]1CSSC[C@H](NC(=O)[C@@H](N)CCCCN)C(=O)N[C@@H](CC(N)=O)C(=O)N[C@@H]([C@@H](C)O)C(=O)N[C@@H](C)C(=O)N[C@@H]([C@@H](C)O)C(=O)N1)[C@@H](C)O)C(C)C)C(=O)N[C@@H](CC(C)C)C(=O)N[C@@H](CO)C(=O)N[C@@H](CO)C(=O)N[C@H](C(=O)N[C@@H](CC(N)=O)C(=O)N[C@H](C(=O)NCC(=O)N[C@@H](CO)C(=O)N[C@@H](CC(N)=O)C(=O)N[C@H](C(=O)N[C@@H](Cc1ccc(O)cc1)C(N)=O)[C@@H](C)O)C(C)C)[C@@H](C)O` [S20K-human IAPP], the entry is “increased the duration of toxicity”.
Regarding S-Flurbiprofen, the “acceleration of amyloid formation and reduction of toxic effects of intermediates, WT human IAPP versus mutant IAPP” value in data set [5] is given as “about equally”. Also, the “effect on human IAPP amyloid formation” value in data set [1] (20 to 1 ratio of compound to human IAPP, listed as S flurbiprofen) was “equally effective”; in data set [1] (20 to 1 ratio of compound to human IAPP, listed as S-flurbiprofen), “accelerated islet amyloid formation”; in data set [1] (setting [9]), “accelerates amyloid formation by human IAPP in a dose dependent manner”. Also, the “presence and toxic effects” value in data set [2] (human IAPP with compound) was “reduced the presence and toxic effects of intermediates of amyloid formation”.
